We go through two molecules from patent US20050031670A1, “Weight reduction or weight controlling composition” (priority 2001, published 2005).

Counter-ions that a name gives are not always drawn.

In experiment [1] the test system is Obese patients (BMI≧30). Put plainly: Weight loss in obese patients given bupropion without food component or dietary intervention (Example 2, comparative). It counts as in vivo, human. Particulars: 300 mg bupropion (150 mg twice a day), no food component nor dietary counseling. The protocol: Example 2 (Comparative): An analysis was conducted of obese patients (BMI≧30) who were given 300 mg of bupropion (150 mg twice a day) in the absence of the food component of the invention nor any other dietary counseling or intervention. Weight loss was negligible, the average weight loss per patient in the 300 mg study was 2.4 Kg after 12 months.

The subject of experiment [2] is Obese patients (BMI≧30). Put plainly: Weight loss in obese patients given bupropion plus low calorie nutritional beverage (Example 3, invention). Particulars: 600 Kcal deficit diet, end of 6 months. It counts as in vivo, human. The protocol:
Example 3 (Invention): Obese patients (BMI≧30) were given 300 mg (N=110) or 400 mg (N=105) of bupropion and a low calorie, nutritional beverage (Slim Fast™, 11.5 oz.) for two meals per day for 6 months to achieve a 600 Kcal deficit diet. That is, each patient was given 150 or 200 mg of bupropion HCL sustained release, respectively, in a nutritional beverage (a food component of the invention) twice a day. At the end of the end of 6 months, the average weight loss was 7.2 kg and 10.1 kg for the 300 mg and 400 mg groups, respectively.

As to `CC(NC(C)(C)C)C(=O)c1cccc(Cl)c1` (racemic) [bupropion, (±)-1-(3-chlorophenyl)-2-[(1,1-dimethyl)amino]-1-propanone hydrochloride], in the experiment on Obese patients (BMI≧30) [1], the “Weight loss (in words)” value is listed as “negligible”. Moreover, the “average weight loss per patient” value in the experiment on Obese patients (BMI≧30) [1] (after 12 months) came to 2.4 kg.

Regarding `CC(NC(C)(C)C)C(=O)c1cccc(Cl)c1` (single isomer, unassigned; (+)) [bupropion HCL sustained release, (+)-2-(tert-butylamino)-3′-chloropropiophenome hydrochloride], the average weight loss in the experiment on Obese patients (BMI≧30) [2] (300 mg group (150 mg twice a day) in Slim Fast 11.5 oz for two meals per day) was determined as 7.2 kg; with Obese patients (BMI≧30) [2] (400 mg group (200 mg twice a day) in Slim Fast 11.5 oz for two meals per day) it was 10.1 kg.
